Measured values reported in US11090355B2, “Compositions and methods for the treatment of neurodamage” (BIOINCEPT, LLC, priority 2015, dated 2021).
Marks after values point to notes of the source that are not given here.

Legend:
[1] = target: PDI (Homo sapiens, UniProt P07237); test: binding to PDI, sPIF compared to scrambled PIF
Excerpt: (FIG. 2). […] (FIG. 3). […] (FIG. 4). […] Thus dependent on the target Kv1.3 or IDE the mutated PIF-1 can have a target-specific effect which can also translate to diverse biological activity.

[2] = tested on: EAE; test: PLP139-151 induced EAE, episodic treatment, paralysis scores; conditions: for MCE (mean clinical score at end) / MCS (mean clinical score) / PP (mean peak paralysis score): short term

Chain of PDI (P07237 18-508, species assumed): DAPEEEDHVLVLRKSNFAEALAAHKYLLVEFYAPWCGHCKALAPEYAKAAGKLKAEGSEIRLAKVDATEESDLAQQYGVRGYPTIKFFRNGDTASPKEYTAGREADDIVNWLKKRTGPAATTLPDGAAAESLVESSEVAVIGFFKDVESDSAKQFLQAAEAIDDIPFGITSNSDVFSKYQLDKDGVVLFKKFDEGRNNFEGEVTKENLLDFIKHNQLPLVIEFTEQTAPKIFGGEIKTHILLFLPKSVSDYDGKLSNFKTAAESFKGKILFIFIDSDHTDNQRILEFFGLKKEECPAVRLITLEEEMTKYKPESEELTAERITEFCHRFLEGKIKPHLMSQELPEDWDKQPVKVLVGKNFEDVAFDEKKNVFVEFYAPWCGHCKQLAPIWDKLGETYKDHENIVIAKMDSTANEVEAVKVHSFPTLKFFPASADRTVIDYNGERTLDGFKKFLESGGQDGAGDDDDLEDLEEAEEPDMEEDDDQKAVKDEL

| interaction with PDI target [1] | Substance | total recovery from paraplegia (stage 4/5) ([2]; episodic treatment) [%] | mice disease free at the end of the study ([2]; long-term, day 50) | mice that died ([2]; long-term, day 50) | mice that died ([2]; medium term) | paralysis score ([2]; medium term) | mice with paralysis reversed / disease free ([2]; medium term, day 41) | mice free of paralysis at the end of the first remission ([2]; short term study) | MCE (mean clinical score at end) ([2]; Experiment 1) | MCS (mean clinical score) ([2]; Experiment 1) | PP (mean peak paralysis score) ([2]; Experiment 1) | MCE (mean clinical score at end) ([2]; Experiment 2) | MCS (mean clinical score) ([2]; Experiment 2) | PP (mean peak paralysis score) ([2]; Experiment 2) |
| --- | --- | --- | --- | --- | --- | --- | --- | --- | --- | --- | --- | --- | --- | --- |
| greatly reduced | GRVDPSNKSMPKDIA (scrPIF-1 (15)) [scrambled PIF] | – | – | – | – | – | – | – | – | – | – | – | – | – |
| – | Glatiramer acetate [GA] | 12.5 | 1/9 | three | one | increased | 1/7 | none | 1.3 +/− 0.4 | 1.58 +/− 0.15 | 2.4 +/− 0.4 | 0.8 +/− 0.2* | 1.4 +/− 0.27 | 2.5 +/− 0.4 |
